GI50 and TGI data for seven compounds are collected here from PubChem BioAssay (NCI).

What all share (assay): inhibition of tumour cell growth, NCI panel, 48 h
In test [1] the test system is ACHN renal.
The test system of test [2] is COLO 205 colon.
Test [3] concerns HCT-116 colon.
The subject of test [4] is HOP-62 NSCLC.
Test [5] has as its system M14 melanoma.
Test [6] relates to NCI-H226 lung.
The subject of test [7] is OVCAR-5 ovarian.
Test [8] concerns SW-620 colon.
The subject of test [9] is T-47D breast.
The test system of test [10] is SR leukemia.

Values joined by “and” are separate entries in the source; they are usually repeats but may differ in a detail not shown here. Equal entries are not always repeated.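 A five-concentration, 48-hour dose response in 96-well plates underlies each endpoint, interpolated linearly between surrounding concentrations. GI50 is the concentration that inhibits growth by half. TGI: total growth inhibition.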

For the compound `CO[C@H]1/C=C/O[C@@]2(C)Oc3c(C)c(O)c4c(O)c(c(/C=N/N5C(C)CN(Cc6ccc(C#N)cc6)CC5C)c(O)c4c3C2=O)NC(=O)/C(C)=C\C=C\[C@H](C)[C@H](O)[C@@H](C)[C@@H](O)[C@@H](C)[C@H](OC(C)=O)[C@@H]1C` (some centres undefined), the GI50 in [1] was 7.89 µM; in test [2] it was 6.82 µM; in test [3], 5.41 µM; in test [4] it was 9.76 µM; in test [5], 7.6 µM; in test [6], 6.06 µM. Also, the GI50 in test [7] was 8.88 µM; in test [8], 8.15 µM; in test [9], 6.71 µM. Besides, the TGI turned out to be 16.2 µM in test [1]; 16.4 µM in [2]; 12.7 µM in [3]; 20.6 µM in [4]; 16.2 µM in test [5]; 12.9 µM in [6]. Further, the TGI in [7] was 18.1 µM; in test [8], 17.5 µM; in test [9], 26.2 µM.

Consider `CN1CCN(c2ccncc2S(=O)(=O)N2CCN(C)CC2)CC1`, for which the TGI in test [1], in test [2], in test [3], in test [4], in test [5] and in test [6] was over 100 µM in each case. Besides, the TGI in [7], in test [8] and in test [9] was over 100 µM throughout.

Turning to `COC(=O)[C@@H](C)C[C@H](Cc1ccccc1)NC(=O)c1csc([C@@H](C[C@H](C(C)C)N(C)C(=O)[C@@H](NC(=O)[C@H]2CCCCN2C)c2ccc(F)cc2)OC(C)=O)n1`, the TGI in test [1] is 25 µM and > 100 µM; in [2] it was 0.127 µM and 0.526 µM; in test [3], 25 µM and > 100 µM; in test [4] it was 25 µM and 40.4 µM; in test [7], 25 µM and > 100 µM; in test [10], 6.84 µM and 17.6 µM. Moreover, the TGI in test [8] was 25 µM and > 100 µM. Also, the GI50 in [2] was 0.0113 µM and 0.0379 µM; in test [10] it was 0.00065 µM and 0.0025 µM; in test [9] it was 0.00826 µM.

Consider `O=C(Nc1ccc(Cl)cc1)c1cc(NCc2cc(O)ccc2O)ccc1O`, for which the GI50 in test [1] was 3.37 µM; in [2], 5.29 µM; in test [3] it was 3.48 µM; in [4], 22 µM; in test [5] it was 10.5 µM; in test [7], 4.77 µM. Besides, the GI50 in [10] is 3.84 µM; in test [8] it was 4.14 µM; in [9], 2.05 µM. Besides, the TGI came to 15.1 µM in [1]; 28.5 µM in [2]; 18.2 µM in test [3]; 51.7 µM in [4]; 27.1 µM in [5]; 19 µM in [7]. Moreover, the TGI is over 100 µM in test [10], 22.8 µM in test [8] and 5.24 µM in test [9].

With `C/C(COc1ccc2oc(-c3ccccc3)cc(=O)c2c1)=N\O`, the GI50 was over 100 µM in [1]; 11.8 µM in test [2]; 25.3 µM in [3]; 69.4 µM in [4]; 15.3 µM in test [5]; over 100 µM in test [6]. Besides, the GI50 is 22 µM in test [7], 26.2 µM in test [8] and 16.2 µM in test [9]. In addition, the TGI in test [1] was over 100 µM; in test [2] it was 52.9 µM; in test [3], over 100 µM; in [4], over 100 µM; in test [5] it was 46.3 µM; in test [6], over 100 µM. The TGI in test [7] is 84.7 µM; in test [8], over 100 µM; in test [9] it was over 100 µM.

For the compound `CCCCCCCCCCCCCCCCCC1=NC(C)(C)CN1C(C)(C)CO`, the GI50 in [1] is 1.53 µM; in test [2], 0.407 µM; in [3], 0.559 µM; in [4], 1.72 µM; in test [5], 1.46 µM; in [6], 2.14 µM. Also, the results for the GI50 in [7], in [8] and in [9] were 1.56 µM, 1.48 µM and 2.3 µM, respectively. In addition, the TGI in [1] came out at 3.05 µM; in test [2], 1.38 µM; in test [3], 2.01 µM; in [4] it was 3.19 µM; in test [5], 2.88 µM; in test [6], 4.06 µM. Moreover, the TGI in test [7] came out at 3.48 µM; in test [8], 2.9 µM; in test [9], 5.55 µM.

With `FC(F)(F)c1cccc(Oc2ccc(Nc3ncnc4ccc(OCCCN5CCOCC5)cc34)cc2Cl)c1`, the GI50 is 1.62 µM in test [1]; 2 µM in [2]; 1.62 µM in test [3]; 2.33 µM in [4]; 1.75 µM in test [5]; 15 µM in [6]. Besides, the GI50 in test [7] is 2.45 µM; in test [8], 1.69 µM; in test [9] it was 1.29 µM. Also, the TGI in test [1] came to 11.1 µM; in [2], 4.47 µM; in [3], 3.08 µM; in [4], 5.18 µM; in test [5], 3.51 µM; in test [6], 41 µM. Also, the TGI in [7] came out at 7.76 µM; in test [8], 3.23 µM; in test [9], 6.35 µM.
